Experimental data from article PMC3740496, “Synthesis and biological activities of the respiratory chain inhibitor aurachin D and new ring versus chain analogues” (Beilstein Journal of Organic Chemistry, 2013).
Values after ≈ are worked out from the molar mass of the structure shown.

Key:
Type in all cases: cell-based
[1] = tested on: Plasmodium falciparum FcB1 (chloroquine-resistant); assay: In vitro antiplasmodial assay ([3H]-hypoxanthine incorporation); settings: for IC50: Plasmodium falciparum, FCB1, triplicate (except compound 24), mean ±SD, read-out: IC50 P. falciparum FcB1; for antiplasmodial selectivity index: Vero cytotoxic concentration / concentration active on P. falciparum FcB1
Method: In vitro antiplasmodial assays: The chloroquine-resistant strain FcB1/Colombia of Plasmodium falciparum was maintained in vitro on human erythrocytes in RPMI 1640 medium supplemented by 8% (v/v) heat-inactivated human serum, at 37 °C, under an atmosphere of 3% CO2, 6% O2, and 91% N2. In vitro drug susceptibility assays was measured by [3H]-hypoxanthine incorporation as described. Drugs were prepared in DMSO at a 10 mg/mL concentration. Compounds were serially diluted two-fold with 100 µL culture medium in 96-well plates. Asynchronous parasite cultures (100 µL, 1% parasitaemia and 1% final hematocrite) were then added to each well and incubated for 24 h at 37 °C prior to the addition of 0.5 µCi of [3H]- hypoxanthine (GE Healthcare, France, 1 to 5 Ci·mmol/mL) per well. After a further incubation of 24 h, plates were frozen and thawed. Cell lysates were then collected onto glass-fiber filters and counted in a liquid scintillation spectrometer. The growth inhibition for each drug concentration was determined by comparison of the radioactivity incorporated in the treated culture with that in the control culture maintained on the same plate. The concentration causing 50% growth inhibition (IC50) was obtained from the drug concentration–response curve and the results were expressed as the mean values ± standard deviations determined from several […]
independent experiments. Chloroquine diphosphate (Sigma–Aldrich) was used as antimalarial drug control. […]

[2] = tested on: K562 myelogenous leukemia cells; assay: Cytotoxicity, growth inhibition (MTT); settings: Homo sapiens, K562, 120 h; 5 days treatment; triplicate, mean ±SD; read-out: IC50: half inhibitory concentration, K562
Method: The cytotoxic activity of aurachin D (4) and analogues 9–11 and 17–19 was evaluated in growth inhibition experiments on mammalian cell lines (Table 2). After 5 days treatment, half inhibitory concentrations (IC50) were determined for human HCT-116 colon carcinoma and human K562 myelogenous leukemia cells. […]
was further incubated for 1.5 h. The medium was then discarded and 100 µL 2-propanol/10 N HCl (250:1) was added in order to dissolve formazan granules. The absorbance at 570 nm was measured using a microplate reader (EL808, Bio-Tek Instruments Inc.) and cell viability was expressed as a percentage relative to the respective solvent control. […]

Micrococcus luteus = assay: MIC determination; settings: duplicate, mean ±SD
Method: (§1) MIC determination: Indicator strains were obtained from the German Collection of Microorganisms and Cell Cultures (Deutsche Sammlung für Mikroorganismen und Zellkulturen, DSMZ) or were part of our internal strain collection. All microorganisms were handled under standard conditions recommended by the depositor. Overnight […]
(§2) cultures of bacteria were prepared in EBS medium (0.5% casein peptone, 0.5% proteose peptone, 0.1% meat peptone, 0.1% yeast extract; pH 7.0). Yeasts and molds were grown in Myc medium (1% phytone peptone, 1% glucose, 50 mM
(§3) HEPES, pH 7.0). The overnight cultures of microorganisms were diluted to OD600 0.01 (bacteria) or 0.05 (yeasts/molds) in the respective growth medium. Serial dilutions of compounds were prepared as duplicates in sterile 96-well plates. The cell suspension was added and microorganisms were grown overnight on a microplate shaker (900 rpm, 30 °C or 37 °C). Growth inhibition was assessed by measuring the OD600 on a plate reader (POLARstar, BMG Labtech). MIC50 values were determined as averages relative to respective control samples by sigmoidal curve fitting. […]

[3] = tested on: Staphylococcus aureus Newman (MSSA); assay: MIC determination; settings: duplicate, mean ±SD
Method: as §1, §2, §3

Bacillus subtilis DSM10 = assay: MIC determination; settings: duplicate, mean ±SD; for MIC50: Bacillus subtilis, DSM10
Method: as §1, §2, §3

Escherichia coli (TolC) = assay: MIC determination; settings: read-out: MIC50 Escherichia coli (TolC)
Method: as §1, §2, §3

[4] = tested on: Escherichia coli DH5α (wt); assay: MIC determination; settings: duplicate, mean ±SD
Method: as §1, §2, §3

[5] = tested on: Klebsiella pneumoniae DSM30104; assay: MIC determination; settings: duplicate, mean ±SD
Method: as §1, §2, §3

[6] = tested on: Staphylococcus aureus DSM11822 (MRSA); assay: MIC determination; settings: duplicate, mean ±SD
Method: as §1, §2, §3

CC(C)=CCC/C(C)=C/CC/C(C)=C/Cc1c(C)[nH]c2ccccc2c1=O [compound 4, aurachin D]
IC50 [1]: 0.04 ± 0.02 µg/mL (≈ 0.11 µM)
antiplasmodial selectivity index [1]: 345
IC50 [2]: 0.65 ± 0.16 µg/mL (≈ 1.79 µM)
MIC50 (Micrococcus luteus): 1.47 ± 0.12 µg/mL (≈ 4.04 µM)
MIC50 [3]: 5.46 ± 1.05 µg/mL (≈ 15 µM)
MIC50 (Bacillus subtilis DSM10): < 0.1 µg/mL
MIC50 (Escherichia coli (TolC)): 8.36 ± 1 µg/mL (≈ 23 µM)
MIC50 [4]: > 64 µg/mL
MIC50 [5]: > 64 µg/mL
MIC50 [6]: 2.1 ± 0.19 µg/mL (≈ 5.78 µM)

CC(C)=CCC/C(C)=C/Cc1c(C)[nH]c2ccccc2c1=O [compound 9]
IC50 [1]: 0.07 ± 0.02 µg/mL (≈ 0.237 µM)
antiplasmodial selectivity index [1]: 345
IC50 [2]: 1.5 ± 0.31 µg/mL (≈ 5.08 µM)
MIC50 (Micrococcus luteus): 2.59 ± 0.34 µg/mL (≈ 8.77 µM)
MIC50 [3]: 3.96 ± 0.49 µg/mL (≈ 13.4 µM)
MIC50 (Bacillus subtilis DSM10): < 0.1 µg/mL
MIC50 (Escherichia coli (TolC)): 1.41 ± 0.45 µg/mL (≈ 4.77 µM)
MIC50 [4]: > 64 µg/mL
MIC50 [5]: > 64 µg/mL
MIC50 [6]: 4.5 ± 0.74 µg/mL (≈ 15.2 µM)

CC(C)=CCCC(C)=CCCC(C)=CCc1c(C)[nH]c2ccc3ccccc3c2c1=O [compound 17]
IC50 [1]: 0.51 ± 0.18 µg/mL (≈ 1.23 µM)
IC50 [2]: ~10 µg/mL (≈ 24.2 µM)
MIC50 (Micrococcus luteus): > 64 µg/mL
MIC50 [3]: > 64 µg/mL
MIC50 (Bacillus subtilis DSM10): > 64 µg/mL
MIC50 (Escherichia coli (TolC)): > 64 µg/mL
MIC50 [4]: > 64 µg/mL
MIC50 [5]: > 64 µg/mL
MIC50 [6]: > 64 µg/mL

COc1ccc2[nH]c(C)c(CC=C(C)CCC=C(C)CCC=C(C)C)c(=O)c2c1 [compound 18]
IC50 [1]: 0.2 ± 0.04 µg/mL (≈ 0.508 µM)
IC50 [2]: 1.15 ± 0.22 µg/mL (≈ 2.92 µM)
MIC50 (Micrococcus luteus): 49.2 ± 3.94 µg/mL (≈ 125 µM)
MIC50 [3]: > 64 µg/mL
MIC50 (Bacillus subtilis DSM10): 6.75 ± 0.6 µg/mL (≈ 17.2 µM)
MIC50 Bacillus subtilis DSM10 (Bacillus subtilis DSM10): significant growth inhibitory effect
MIC50 (Escherichia coli (TolC)): > 64 µg/mL
MIC50 [4]: > 64 µg/mL
MIC50 [5]: > 64 µg/mL
MIC50 [6]: > 64 µg/mL

CC(C)=CCCC(C)=CCCC(C)=CCc1c(C)[nH]c2cc3c(cc2c1=O)OCO3 [compound 19]
IC50 [1]: 0.42 ± 0.09 µg/mL (≈ 1.03 µM)
IC50 [2]: > 10 µg/mL
MIC50 (Micrococcus luteus): > 64 µg/mL
MIC50 [3]: 34.6 ± 5.13 µg/mL (≈ 84.8 µM)
MIC50 (Bacillus subtilis DSM10): 4.66 ± 0.5 µg/mL (≈ 11.4 µM)
MIC50 Bacillus subtilis DSM10 (Bacillus subtilis DSM10): significant growth inhibitory effect
MIC50 (Escherichia coli (TolC)): > 64 µg/mL
MIC50 [4]: > 64 µg/mL
MIC50 [5]: > 64 µg/mL
MIC50 [6]: > 64 µg/mL
